From paper PMC6149971, “In Vivo and In Vitro Activities and ADME-Tox Profile of a Quinolizidine-Modified 4-Aminoquinoline: A Potent Anti-P. falciparum and Anti-P. vivax Blood-Stage Antimalarial” (Molecules : A Journal of Synthetic Chemistry and Natural …, 2017)

What was measured:
P. falciparum D10 (CQ-S) = test: Combination with dihydroartemisinin (isobologram), D10; format: cell-based; settings: additive activity
Experimental: Figure 2 Isobologram analysis of the antimalarial activity of (−)-AM1 in combination with dihydroartemisinin (DHA) against D10 chloroquine-sensitive (CQ-S) (A) or W2 chloroquine-resistant (CQ-R) (B) P. falciparum strains. […]. DHA fractional IC50 values were calculated by dividing the IC50 of DHA combined with (−)-AM1 or CQ, respectively, by the IC50 of DHA alone, and plotted on the horizontal axis. The corresponding fractional (−)-AM1 or CQ IC50 values were calculated by dividing each fixed concentration by the IC50 of the (−)-AM1 or CQ alone, and plotted on the vertical axis. An isobologram close to the diagonal indicates an additive effect.
The antimalarial activity of (−)-AM1 was assayed in combination with dihydroartemisinin (DHA) against W-2 (CQ-R) or D10 (CQ-S) strains of P. falciparum by potentiation tests as previously described. CQ was used as a control. Isobolograms were constructed by plotting a pair of fractional IC50 values for each combination of (−)-AM1 or CQ with DHA [40].
An isobologram close to the diagonal indicates an additive effect.

CYP1A2 = target: T1, CYP1A2 (Homo sapiens, UniProt P05177); test: in vitro
T1 sequence (P05177 1-516): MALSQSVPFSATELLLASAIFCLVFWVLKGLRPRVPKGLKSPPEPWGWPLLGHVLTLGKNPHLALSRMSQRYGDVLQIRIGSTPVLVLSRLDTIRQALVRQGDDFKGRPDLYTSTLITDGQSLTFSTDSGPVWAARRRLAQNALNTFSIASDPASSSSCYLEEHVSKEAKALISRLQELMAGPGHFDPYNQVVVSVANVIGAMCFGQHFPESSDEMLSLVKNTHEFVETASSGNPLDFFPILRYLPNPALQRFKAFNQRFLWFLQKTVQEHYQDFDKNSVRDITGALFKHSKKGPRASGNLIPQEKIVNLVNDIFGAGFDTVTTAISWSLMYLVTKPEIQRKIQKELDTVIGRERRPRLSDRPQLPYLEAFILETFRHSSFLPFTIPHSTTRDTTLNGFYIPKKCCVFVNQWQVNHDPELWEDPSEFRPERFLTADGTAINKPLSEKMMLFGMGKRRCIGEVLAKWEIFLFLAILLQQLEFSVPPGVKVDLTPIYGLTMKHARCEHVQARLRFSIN

P. falciparum W-2 (CQ-R) = tested on: P. falciparum W-2 (CQ-R); set-up: method as in PMID 22901673; settings: 72 h incubation, pLDH method, mean of 3 experiments; data already published; cited from earlier work
[1] = Metabolites in mouse plasma after oral treatment; format: in vivo; set-up: key: +: Metabolic Products Detected In Vitro and In Vivo; ND: Not detectable; settings: after 50 mg/kg (−)-AM1 oral gavage, at 120 min
Experimental: A representative chromatogram in the mouse and the MS spectra are shown in Figure S1 (Supplementary Materials), while the proposed structures of metabolites in all the species, together with the retention times, are shown in Table 3. In the same table, the metabolites found in mouse plasma after 50 mg/kg oral treatment are included. The retention times and [M + H]^+ of the metabolites are the same for all three species.
The parent [M + H]^+ = 330 and the metabolites [M + H]^+ = 346 and [M + H]^+ = 344 were also detected in the mouse plasma samples collected after oral treatment of CD1 mice with 50 mg/kg of (−)-AM1 (Figure S4).
Samples from the metabolic stability and metabolism studies were analyzed under the following conditions: UPLC interfaced with a Premiere XE triple Quadrupole Waters for stability studies, and Bruker Daltonics Ion Trap HCT Ultra for metabolic studies. A gradient from 2% to 100% (Water, MeOH, 5 mM Ammonium Acetate) over 2 min (stability) or 12 min (metabolism) in a C18 BEH (dimensions 1 by 50 mm for stability and 2.1 by 100 mm for metabolism, 1.7 µm column, 45 °C temperature, flow rate 0.5 mL/min) was used. […]

Clc1ccc2c(NC[C@@H]3CCCN4CCCC[C@H]34)ccnc2c1 [(−)-AM1, 7-chloro-N-(((1S,9aR)-octahydro-1H-quinolizin-1-yl)methyl)quinolin-4-amine]
FIC in combination with DHA (P. falciparum D10 (CQ-S)): < 2
inhibition at 3 µM (CYP1A2): < 5%
IC50 (P. falciparum W-2 (CQ-R)): 53.7 nM
Metabolic products detected, in vivo plasma levels, mouse [1]: +
